Results from patent US9757350B2, “Small molecule inhibitors of replication protein A that also act synergistically with cisplatin” (Indiana University Research and Technology Corp., priority 2010, dated 2017).
“Also recorded” adds a separate entry of the source.

Experiments:
RPA DBD-A/B [1] = target: T1, RPA DBD-A/B (Homo sapiens, UniProt P27694); assay: EMSA DNA binding assay, RPA DBD-A/B construct
T1 construct: made in house; host or cells: E. coli BL21(DE3)
Method: DBD-A/B. The sequence encoding the RPA p70 DNA binding domains A and B were subcloned from the hrRPA plasmid (provided by Dr. Marc Wold, University of Iowa) into the pET15b (Novagen) vector and the protein was expressed in BL21(DE3) cells (Stratagene) as previously described. Briefly, cells were grown to an OD600 of 0.8, induced with 0.5 mM isopropyl-1-thio-β-D-galactopyranoside (IPTG) at 37° C. for 2-3 hours. Small scale DBD-A/B preparations were obtained from 1 L cultures and following induction, cells were harvested by centrifugation at 700×g for 30 minutes at 4° C. The pellets were suspended in Buffer A (20 mM Tris, pH 7.5, 10% glycerol, 500 mM NaCl, 10 mM β-mercaptoethanol (BME) and 1 μg/mL phenylmethanesulfonylfluoride (PMSF), leupeptin and pepstatin) at 1 mL/gram of cells. The cells were lysed by sonication and insoluble material sedimented at 15,000×g for 30 minutes at 4° C. The supernatant was then loaded onto a 10 mL phosphocellulose column, equilibrated with Buffer A, and the flow-through material collected. Imidazole was added to 5 mM to the flow through which was then loaded onto a 2 mL nickel-NTA-agarose column. The column was then washed with Buffer A containing 50 mM imidazole after which protein was eluted from the column using a gradient from 50-500 mM imidazole. Fractions were analyzed for protein content using Bradford and SDS-PAGE analysis in addition to assessment of DNA binding activity as determined by anisotropy. Fractions containing the DBD-A/B protein were pooled and dialyzed overnight in Buffer B (1 mM HEPES, pH 7.2, 10 mM dithiothreitol (DTT), 50 mM NaCl and 1 μg/mL PMSF, pepstatin and leupeptin) and aliquots stored at −80° C.
RPA and DBD-A/B Binding. EMSAs were performed as previously described (22) using a 30-base purine rich ssDNA substrate (3Pc3). […] Gels were dried and quantified via phosphorimager analysis and ImageQuant software (Molecular Dynamics).

[2] = target: T2, full-length heterotrimeric RPA (Homo sapiens, UniProt P27694); assay: EMSA in vitro DNA binding assay, full-length heterotrimeric RPA; conditions: ssDNA substrate
T2 construct: Human full-length, un-tagged heterotrimeric RPA (RPA) was purified as previously describe; made in house
Method: RPA. Human full-length, un-tagged heterotrimeric RPA (RPA) was purified as previously describe.
RPA and DBD-A/B Binding. EMSAs were performed as previously described (22) using a 30-base purine rich ssDNA substrate (3Pc3). Briefly, reactions contained 12.5 nM 5′-[^32P]-labeled 3Pc3 ssDNA and the indicated concentrations of RPA or DBD-A/B. Protein was pre-incubated with the indicated concentration of SMI for 30 minutes at 37° C. DNA was then added and reactions incubated for an additional 5 minutes at room temperature in a final reaction volume of 40 μL. Reactions were then resolved on a 6% native polyacrylamide gel and electrophoresed at 170 volts for 1 hour. Gels were dried and quantified via phosphorimager analysis and ImageQuant software (Molecular Dynamics).

EcSSB = target: T3, EcSSB (Escherichia coli, UniProt P0AGE0); assay: E. coli SSB DNA-binding EMSA; conditions: 0-200 μM, pre-incubated with protein
T3 construct: purchased Enzymatics, Beverly, Mass
Method: In order to study the specificity of the CheSS19, and MCI13E/F compounds, their effects on two ssDNA binding proteins which use OB-folds for recognition and binding of ssDNA, E. coli SSB (6) and the Schizosaccharomyces pombe Pot1(DBD) domain (11) were studied. The EcSSB protein is a non-sequence-specific ssDNA binding protein, whereas the SpPot1(DBD) protein is a telomere-specific, ssDNA binding protein. In these experiments, protein was pre-incubated with the SMIs, as was done for the RPA experiments, prior to addition of radiolabeled ssDNA to the reactions.
Referring now to FIG. 6B. CheSS19 titration in EcSSB DNA-binding reactions. CheSS19 (0, 25, 50, 100, and 200 μM) was pre-incubated with EcSSB and binding reactions were carried out. Referring now to FIG. 6C. Titration of MCI13E and MCI13F in EcSSB DNA-binding reactions. Concentrations of MCI13E/F used were: 0, 25, 50, 100, and 200 μM. In all panels, the ‘Free’ ssDNA is indicated with an arrow and the ‘Bound’ ssDNA is indicated by brackets. All reactions were performed in the same order and manner as the RPA binding reactions. EcSSB binding was unaffected by CheSS19 and the MCI13E and MCI13F compounds […].
EMSAs were performed similarly to those for the RPA constructs, with the following exceptions. Reactions contained 25 nM of 5′-[^32P]-labeled 3Pc3 ssDNA and 3.3 nM (assuming homotetramer formation) SSB protein (Enzymatics, Beverly, Mass.). Reactions (20 μL) were carried out in 20 mM HEPES, pH 7.5, 1 mM DTT, 0.01% NP-40, 100 mM NaCl, and resolved by 6% native polyacrylamide gel electrophoresis at 25 mA for 2 hours. Gels were dried and quantified via phosphorimager analysis and ImageQuant software (Molecular Dynamics).

RPA DBD-A/B [3] = target: T1, RPA DBD-A/B; assay: Reversibility of DBD-A/B inhibition: dialysis, then fluorescence polarization; format: binding; conditions: overnight dialysis, then FP with F-dT12
Method: In an experiment reported herein, DBD-A/B was incubated with CheSS19 and then the reaction mix dialyzed overnight to remove dissociable inhibitor. […] Referring now to FIG. 3D. Bar graph showing results of fluorescence polarization analysis of CheSS19 inactivated RPA DBD-A/B. Referring now to FIG. 3D, RPA DBD-A/B was pre-incubated with vehicle (1% DMSO) or CheSS19 (1 pmol in 1% DMSO) for 30 minutes at 37° C. Following incubation, the reaction mix was dialyzed versus H1 buffer overnight at 4° C. The protein was recovered and DNA binding activity measured by FP analysis of binding to an F-dT12 substrate was performed as described in “Methods”. Bar 1, DNA control, Bar 2, control vehicle treated DBD-A/B, Bar 3, Chess19 treated DBD-A/B. The data represent the mean and range of two independent experiments.
Fluorescence polarization experiments were preformed as previously described (21). SMIs were diluted in H1 buffer (10 mM HEPES, pH 7.2, 1 mM DTT, 0.01% NP-40 and 100 mM NaCl) and the final DMSO concentration was kept below 1%.
In order to assess the reversibility of select SMIs, the indicated SMI was pre-incubated with RPA or the DBD-A/B construct for 30 minutes at room temperature. […] The resulting protein was recovered and concentration determined by Bradford analysis. […]

[4] = target: T2, full-length heterotrimeric RPA; conditions: reference 9; cited from earlier work
[5] = tested on: NSCLC cell lines A549 and H460; conditions: reference 1; cited from earlier work
p21 = assay: Quantitative real-time PCR of p21 mRNA; format: cell-based; conditions: A549, versus untreated control
Method: Real-Time PCR—A549 cells were plated in 10 cm dishes at 1.5×10^6, allowed to adhere, and treated for 24-48 hours with cisplatin or SMIs (5 μM). Referring now to FIG. 16B, Western blot of cells treated sequentially. For sequential treatment, A549 cells were exposed to cisplatin for 24 hours followed by the addition of SMIs for another 24 hours as above. Referring now to FIG. 16A, A549 cells were treated sequentially or concurrently with cisplatin (5 μM) and MCI13E or MCI13F for 24 total hours. Lysates were probed for p53-ser15-phosphorylation or phosphorylated-ATM. GAPDH was probed as a loading control. Concurrently treated cells were incubated simultaneously with both cisplatin and MCIs for 24 hours. RNA was extracted using RNeasy minikit (Qiagen, Germantown, Md.) per manufacturer's protocol. cDNA was generated using Applied Biosystem's (ABI) High Capacity RNA-to-cDNA kit. Validated gene primer/probe sets, also from ABI, were used for Quantitative Real Time-PCR. ABI's ΔΔCT Relative Quantification methodology was used for the analyses (applied Biosystems). Data were normalized to the housekeeping gene GAPDH and calibrated to the mock treated samples. Results presented are the average of two separate cell treatments/RNA isolations with duplicate Taqman Assays per RNA sample set.
Referring now to FIG. 15A. Plot of Quantitative Real Time PCR analyses of mRNA expression changes of A549 cells treated with MCI13E, MCI13F and Cisplatin. Data represents the average of four separate Q-RT PCR Assays. Genes of interest were normalized to GAPDH transcript levels, and are presented as fold changes relative to untreated cell samples. Cisplatin treatment increases transcription of DDB2 (A). Referring now to FIG. 15B. Bar graph of P21/GAPDH measured in cells subjected to different treatment schemes. Referring now to FIG. 15C. Bar graph of XPC/GAPDH measured under different treatment regimes XPC Concurrent MCI/Cisplatin treated cells show a decrease in gene transcription when compared to cells treated with Cisplatin alone (24 hour).

T1 sequence (P27694 181-422 limits assumed): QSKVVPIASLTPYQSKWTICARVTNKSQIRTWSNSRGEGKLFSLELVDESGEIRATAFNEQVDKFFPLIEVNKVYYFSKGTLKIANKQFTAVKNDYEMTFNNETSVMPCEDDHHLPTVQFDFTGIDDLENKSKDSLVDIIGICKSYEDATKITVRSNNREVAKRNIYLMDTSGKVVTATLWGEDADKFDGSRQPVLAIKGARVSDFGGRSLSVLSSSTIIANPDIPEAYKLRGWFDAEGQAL
T2 sequence (P27694 whole entry): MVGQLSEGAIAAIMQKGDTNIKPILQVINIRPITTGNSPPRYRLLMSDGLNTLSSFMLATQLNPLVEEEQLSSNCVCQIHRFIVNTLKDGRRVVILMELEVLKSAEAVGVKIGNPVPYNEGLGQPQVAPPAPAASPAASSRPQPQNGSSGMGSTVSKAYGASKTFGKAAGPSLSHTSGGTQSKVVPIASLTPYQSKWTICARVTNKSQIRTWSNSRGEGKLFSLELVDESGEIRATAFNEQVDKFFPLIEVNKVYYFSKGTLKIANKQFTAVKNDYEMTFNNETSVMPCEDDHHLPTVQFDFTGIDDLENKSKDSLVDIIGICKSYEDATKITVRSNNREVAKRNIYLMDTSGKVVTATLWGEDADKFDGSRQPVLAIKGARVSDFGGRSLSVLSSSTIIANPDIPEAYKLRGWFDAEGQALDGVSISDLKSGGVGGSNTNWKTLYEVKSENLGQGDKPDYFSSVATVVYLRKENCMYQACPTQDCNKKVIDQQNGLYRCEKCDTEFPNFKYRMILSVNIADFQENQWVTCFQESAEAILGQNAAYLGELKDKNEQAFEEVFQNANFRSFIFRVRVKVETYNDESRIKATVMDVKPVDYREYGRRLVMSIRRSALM
T2 sequence (P15927 whole entry partner): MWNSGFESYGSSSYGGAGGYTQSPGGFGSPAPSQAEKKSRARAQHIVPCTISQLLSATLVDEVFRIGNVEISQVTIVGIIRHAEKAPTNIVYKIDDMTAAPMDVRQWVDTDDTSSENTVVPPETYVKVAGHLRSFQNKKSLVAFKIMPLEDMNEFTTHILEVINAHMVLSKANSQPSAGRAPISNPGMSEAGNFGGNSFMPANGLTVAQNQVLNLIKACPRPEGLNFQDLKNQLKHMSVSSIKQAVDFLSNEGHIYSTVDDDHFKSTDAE
T2 sequence (P35244 whole entry partner): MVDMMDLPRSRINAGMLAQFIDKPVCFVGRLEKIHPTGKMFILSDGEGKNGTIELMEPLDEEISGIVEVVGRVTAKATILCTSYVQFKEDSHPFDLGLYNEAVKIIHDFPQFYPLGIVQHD
T3 sequence (P0AGE0 2-178): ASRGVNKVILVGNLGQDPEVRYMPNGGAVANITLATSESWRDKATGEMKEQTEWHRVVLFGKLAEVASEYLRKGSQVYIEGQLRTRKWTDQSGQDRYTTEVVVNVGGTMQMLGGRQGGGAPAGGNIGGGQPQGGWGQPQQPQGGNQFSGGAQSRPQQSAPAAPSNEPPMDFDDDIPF

With `O=C1OC(=O)[C@H]2C3C=CC(CC3)[C@@H]12` [CheSS19] the “Inhibition of DBD-A/B DNA binding” value (RPA DBD-A/B [1]) was “potent inhibitory activity; also recorded: inhibits the DNA binding activity of the DBD-A/B construct with similar potency to the heterotrimeric RPA preparation”, the “Inhibition of full-length RPA DNA binding” value [2] was “potent inhibitory activity” and the “Effect on EcSSB ssDNA binding” value (EcSSB) was “unaffected”. For the same compound, the “Reversibility of DBD-A/B inhibition” value (RPA DBD-A/B [3]) was “inhibiting DBD-A/B in an irreversible manner” and the “Reversibility of full-length RPA inhibition (earlier report)” value [4] was “irreversible”.
For `CCOc1ccc2cc(C3CC(c4ccc(Br)cc4)=NN3C(=O)CCC(=O)O)c(Cl)nc2c1` (stereo not shown) [TDRL-505], the “Mode of cell death (earlier report)” value [5] is listed as “cytotoxic via a non-apoptotic pathway”.
With `N.N.[Cl][Pt][Cl]` [cisplatin, cis-diamminedichloroplatinum (II)] the “p21 mRNA expression, single agent” value (p21) was “dramatic increase in p21 mRNA expression”.
